According to patent US6369101B1, “Therapeutic method to treat herpes virus infection” (Regents of the University of Minnesota, priority 1999, dated 2002):
Converted amounts (≈) assume the structure as drawn. Like-named read-outs stand apart in the source and are kept apart here.

Columns and labels:
[1] = CC50 in Daudi cells (Table 3); assay type: cell-based; conditions: human
Procedure: (§8) Raji is a Burkitt's lymphoma cell line containing 60 EBV genome/cell, and was the primary cell used for screening antiviral activity against EBV early antigen (EA) expression. Daudi is a low level producer that contains 152 EBV genome copies/cell. It spontaneously expresses EBV EA in 0.25-0.5% of the cells. It was used in follow-up studies to confirm activity. […] All cell lines were maintained in RPMI-1640 medium supplemented with 10% FCS, L-glutamine and 100 μg/ml gentamicin. The cultures were fed twice weekly and the cell concentration was adjusted to 3×10^5/ml. The cells were kept at 37° C. in humidified atmosphere with 5% CO2.

Epstein-Barr Virus = assay: VCA expression in EBV-infected Daudi cells
From the text: Raji is a Burkitt's lymphoma cell line containing 60 EBV genome/cell, and was the primary cell used for screening antiviral activity against EBV early antigen (EA) expression. […] It spontaneously expresses EBV EA in 0.25-0.5% of the cells. It was used in follow-up studies to confirm activity. These cell lines respond to superinfection by EBV by expressing EA-diffuse component EA (D), EA restricted component EA (R), and viral capsid antigen (VCA). […] The cultures were fed twice weekly and the cell concentration was adjusted to 3×10^5/ml. The cells were kept at 37° C. in humidified atmosphere with 5% CO2.
Cells were infected with the P3HR-1 strain of HBV and the test compound was added after adsorption (45 minutes at 37° C.) and washing of the cell cultures. The cultures were incubated for two days in complete medium to allow viral gene expression. Following the 48 hours of incubation, the numbers of cells of each sample was counted and smears were made. Monoclonal antibodies to the different EA components and VCA were then added to the cells and then incubated and washed. This is followed by a fluorescein conjugated rabbit anti-mouse IgG antibody, and the number of fluorescence cells in the smear were counted. The total number of cells in the cultures positive for EA or VCA were then calculated and compared.

[2] = CC50 in HFF cells (Table 3); assay type: cell-based, human; conditions: human
Procedure: (§1) The cells were observed daily for any change in morphology. The rounding and lysis of cells were observed if the compound has cytotoxic effect. At the end of this time, the media-drug solution was removed and the cells washed. […] The cells-media mixture was then pipetted up and down several times to resuspend the cells and 0.2 ml of the cell suspension was added to 9.8 ml of trypan blue and cells were counted using hemocytometer. Each sample was counted three times with three replicate wells per sample.

Varicella-Zoster Virus = assay: CPE inhibition in stationary cells (visual), VZV in HFF cells; assay type: cell-based
Human Cytomegalovirus = assay: CPE inhibition in stationary cells (visual), HCMV in HFF cells; assay type: cell-based
Mouse Cytomegalovirus = assay: CPE inhibition in stationary cells (visual), MCMV in MEF cells; assay type: cell-based; conditions: test compounds in DMSO
[3] = CC50 in MEF cells (Table 3); assay type: cell-based; conditions: Mouse Cytomegalovirus section of Table 3
HSV-2 strain G = assay: CPE inhibition, HSV-2 strain G in HEp-2 cells; note: key: +++ = Complete cytopathic effect; ++ = Moderate cytopathic effect; + = Minimum cytopathic effect; − = No cytopathic effect; assay type: cell-based, herpes simplex virus type 2; conditions: conc. per compound (ng/ml)
From the text: (§2) Human laryngeal epithelial carcinoma cells (HEp-2, ATCC, Rockville, Md.) were used for testing of antiviral compounds by cytopathic effect (CPE) inhibition and plaque reduction assay. Primary human foreskin fibroblast cells (HFF) obtained from Dr. E. R. Kern (Department of Pediatrics, University of Alabama Medical School, 309 Bevill Biomedical Research Building, 845 19th Street South, Birmingham, Ala., 35294-2170), were used for cytopathic effect (CPE) inhibition assay. HEp-2, African green monkey kidney cells (Vero, ATCC), HFF and primary rabbit kidney cells were used to determine the cytotoxic effect of compounds of formula I. These cells were propagated in Dulbeco's modified Eagle's medium (DMEM) (Sigma, USA) supplemented with 10% inactivated fetal calf serum (FCS), 25 mM HEPES, 0.2% sodium bicarbonate and 1% penicillin/-streptomycin at 37° C. in the presence of 5% CO2.
(§3) The antiviral activity of the test compounds was determined against HSV-1 strain F, HSV-2 strain G (ATCC), HSV-1 strain E-377 and HSV-2 strain MS (Dr. E. R. Kern, see above), CMV strain AD 169 (NIH), HCMV (NIH), MCMV (NIH), and VZV strain Ellen (NIH). Highly infective virus stocks of HSV-1 and HSV-2 were prepared by infecting a confluent monolayer of HEp-2 (ATCC) or HFF in 150 cm^2 plastic tissue culture flasks (Falcon, USA) at a multiplicity of infection of 0.5 in DMEM supplemented with 10% inactivated fetal calf serum and 1% penicillin/streptomycin at 37° C. in the presence of 5% CO2. The infected cells were disrupted through three freeze/thaw cycles, and viruses were clarified from large cell debris by low speed centrifugation at 3000 rpm for 10 minutes. The virus suspension was separated, aliquoted and stored at −80° C. until assayed or used for animal infection. The stock HSV-1 (E377) and HSV-2 (MS strain) contained 3.5×10^8 and 1.1×10^7 pfu/ml respectively.
(§4) Low passage HFF cells were seeded into 96-well tissue culture plates 24 hours prior to use at a cell concentration of 2.5×10^4 cells per ml in 0.2 ml of DMEM supplemented with 10% fetal calf serum. After 24 hours of incubation at 37° C. in the presence of 5% CO2, medium was removed and the test compounds were diluted two-fold in DMEM in the 96-well tissue culture plate containing monolayer. […] For both HSV-1 and HSV-2 assays, the virus concentration utilized was 1000 pfu/ml and for HCMV, MCMV, and VZV assay 2500 pfu/ml were used. The plates were then incubated at 37° C. in the presence of 5% CO2 for two to three days for HSV-1 and HSV-2, 10 days for VZV and 14 days for HCMV and MCMV. The virus induced cytopathic effect (CPE) was monitored microscopically every day. CPE of HSV-1 was recognized by cell rounding and clumping, while HSV-2 formed large syncytia along with rounding and clumping of cells. […] EC50s were estimated from graphical plots of percent CPE against the concentration of the test compounds. The EC50s for each compound are the mean of EC50s for three or more independent experiments. After three days of incubation period, media was aspirated and the cells stained with a 0.1% crystal violet solution for 30 minutes. The stain was then removed and the plates were rinsed with tap water, air dried and retained.

[4] = test system: Primary human foreskin fibroblast cells (HFF); assay: Cell proliferation assay (cytotoxicity) in HFF cells; assay type: cell-based
Procedure: as §2, with “Primary human foreskin fibroblast cells (HFF) obtained from Dr. E. R. Kern (Department of Pediatrics, University of Alabama Medical School, 309 Bevill Biomedical Research Building, 845 19th Street South, Birmingham, Ala., 35294-2170), were used for cytopathic effect (CPE) inhibition assay.” left out
(§5) HFF, Vero and HEp-2 cells were seeded in 24-well tissue culture plates at a concentration of […] in DMEM containing 10% FCS and incubated for 24 hours at 37° C. in the presence of 5% CO2. To the monolayer of these cells 0.5, 1.0, 1.5 and 2.0 ml of solution of antiviral compounds were added in the respective wells in duplicate and the cells were then incubated in a 5% CO2 incubator at 37° C. for 72 hours. The cells were observed daily for any change in morphology. […] At the end of this time, the media-drug solution was removed and the cells washed. One ml of 0.25% trypsin was added to each well and incubated until the cells start to come off of the plate. The cells-media mixture was then pipetted up and down several times to resuspend the cells and 0.2 ml of the cell suspension was added to 9.8 ml of trypan blue and cells were counted using hemocytometer. Each sample was counted three times with three replicate wells per sample.

Daudi cells = assay: CC50 in Daudi cells (Table 3); assay type: cell-based
Procedure: as §8

HSV-2 (strain G) = assay: Plaque reduction assay, HSV-2 strain G in HEp-2 cells; assay type: cell-based, herpes simplex virus type 2; conditions: conc. per compound (ng/ml) (Acyclovir 250), HSV-2 virus control 47
Procedure: (§6) HEp-2 cells were grown to monolayer in 24 well tissue culture plates in DMEM containing 10% fetal calf serum at 37° C. for 24-36 hours in the presence of 5% CO2. The monolayer of HEp-2 cells was infected with 0.1 ml of HSV- 1 (strain F) or HSV-2 (strain G) containing 100 pfu. The viruses were allowed to adsorb for 1 hour at 37° C. in the presence of 5% CO2. All wells containing virus infected cells except virus control were overlaid with 0.9 ml of DMEM and 1 ml of test compound. The virus control and cell control received DMEM only. All microtiter plates were incubated at 37° C. in the presence of 5% CO2 and observed twice daily for 72 hours for viral CPE. At the end of the experiment, plates were stained with 0.1% crystal violet and the results were quantified by counting plaque forming units.

HSV-2 strain MS = assay: CPE inhibition assay, HSV-2 MS in human foreskin fibroblast cells; assay type: cell-based, herpes simplex virus type 2; conditions: CPE inhibition in HFF cells
Procedure: (§7) Stock solutions of the compounds used for the testing of antiviral activity against HSV-1 and HSV-2 were prepared in distilled water, filtered through 0.2 μm filter (Acrodisco®, Gelman Sciences, USA) and stored at room temperature until used.
as §2, §3, §4

HFF cells = assay: CC50 in HFF cells (Table 3); assay type: cell-based, human; conditions: HFF cells
Procedure: as §1

HSV-1 strain E-377 = assay: CPE inhibition assay, HSV-1 E377 in human foreskin fibroblast cells; assay type: cell-based, herpes simplex virus type 1; conditions: CPE inhibition in HFF cells
Procedure: as §7, §2, §3, §4

[5] = test system: Human laryngeal epithelial carcinoma cells (HEp-2); assay: Cytotoxicity in HEp-2 cells; assay type: cell-based
Procedure: as §2, with “Primary human foreskin fibroblast cells (HFF) obtained from Dr. E. R. Kern (Department of Pediatrics, University of Alabama Medical School, 309 Bevill Biomedical Research Building, 845 19th Street South, Birmingham, Ala., 35294-2170), were used for cytopathic effect (CPE) inhibition assay.” left out
as §5

HSV-1 strain F = assay: CPE inhibition, HSV-1 strain F in HEp-2 cells; note: key: +++ = Complete cytopathic effect; ++ = Moderate cytopathic effect; + = Minimum cytopathic effect; − = No cytopathic effect; assay type: cell-based, herpes simplex virus type 1; conditions: conc. per compound (ng/ml)
From the text: as §2, §3, §4

HSV-1 (strain F) = assay: Plaque reduction assay, HSV-1 strain F in HEp-2 cells; assay type: cell-based, herpes simplex virus type 1; conditions: conc. per compound as in column Conc. (ng/ml), HSV-1 virus control 5
Procedure: as §6

MEF cells = assay: CC50 in MEF cells (Table 3); assay type: cell-based; conditions: Mouse Cytomegalovirus section of Table 3
[6] = human gammaherpesvirus 4, Daudi
[7] = Human alphaherpesvirus 3, test compounds in DMSO, read-out: EC50
[8] = Human betaherpesvirus 5, test compounds in DMSO, read-out: EC50
[9] = HFF cells, Human Cytomegalovirus section of Table 3, read-out: CC50
[10] = Daudi cells, Epstein-Barr Virus section of Table 3
[11] = Epstein-Barr Virus, Daudi cells, VCA, test compounds in DMSO
[12] = Human Cytomegalovirus section of Table 3
[13] = Varicella-Zoster Virus section of Table 3
[14] = HEp-2 cells, conc. per compound (ng/ml)

Molecule	EC50 (Epstein-Barr Virus; [6]) [ng/mL]	EC50 (Varicella-Zoster Virus; [7]) [ng/mL]	EC50 (Human Cytomegalovirus; [8]) [ng/mL]	CC50 at 72 h [2, 9] [µg/mL]	Cytopathic Effect (CPE) Inhibition HSV-2 Strain G (HSV-2 strain G)	CC50 (Daudi cells; [10]) [ng/mL]	EC50 (Epstein-Barr Virus; [11]) [ng/mL]	EC50 (Human Cytomegalovirus; test compounds in DMSO) [ng/mL]	Plaque Reduction Assay Average pfu/10^5 Cells HSV-2 Strain G (HSV-2 (strain G)) [pfu/10^5 Cells]	EC50 HSV-2 MS (HSV-2 strain MS) [ng/mL]	CC50 (HFF cells; [12]) [ng/mL]	CC50 (HFF cells; [13]) [ng/mL]	EC50 HSV-1 E377 (HSV-1 strain E-377) [ng/mL]	Cell Cytotoxicity [5, 14]	EC50 (Varicella-Zoster Virus; test compounds in DMSO) [ng/mL]	Cytopathic Effect (CPE) Inhibition HSV-1 Strain F (HSV-1 strain F)	also measured
C=C(C)[C@@H]1CC[C@]2(COP(=O)(O)O)CC[C@]3(C)[C@H](CC[C@@H]4[C@@]5(C)CC[C@H](OP(=O)(O)O)C(C)(C)[C@@H]5CC[C@]43C)[C@@H]12 [Betulin diphosphate]	0.39	> 100															CC50 [1]: > 0.05 µg/mL; CC50 at 72 h ([2]; CC50): > 0.1 µg/mL
Nc1nc(O)c2ncn(COC(CO)CO)c2n1 [Ganciclovir ®, Ganciclovir, reference compound]			100 (≈ 0.392 µM)	> 100													EC50 (Mouse Cytomegalovirus; read-out: EC50): 0.9 µg/mL (≈ 3.53 µM); CC50 [3]: > 100 µg/mL
C[C@@H]1O[C@@H](O[C@H]2[C@H](O[C@H]3CC[C@@]4(C)[C@@H](CC[C@]5(C)[C@@H]4CC=C4[C@@H]6CC(C)(C)CC[C@]6(C(=O)O)CC[C@]45C)[C@]3(C)CO)OC[C@H](O)[C@@H]2O)[C@H](O)[C@H](O)[C@H]1O [Hederine hydrate, α-hederin hydrate]					++	3.8	1.5	>4.0	38	>250	10.0	11.5	>250	−	>4.0	++	CC50 ([4]; Human foreskin fibroblast cells, reduces growth of uninfected cells by 50%): >250 ng/mL
C[C@H]1[C@H](C)CC[C@]2(C(=O)O)CC[C@]3(C)C(=CC[C@@H]4[C@@]5(C)CC[C@H](O)C(C)(C)[C@@H]5CC[C@]43C)[C@H]12 [Ursolic acid]	48.5 (≈ 0.106 µM)	> 0.8	> 100	> 0.1	++				33					−		++	CC50 ([1]; Daudi cells, Epstein-Barr Virus section of Table 3, read-out: CC50): > 0.05 µg/mL; CC50 at 72 h ([2]; HFF cells, Varicella-Zoster Virus section of Table 3, read-out: CC50): 0.0029 µg/mL (≈ 0.00635 µM)
C[C@H]1[C@H](C)CC[C@]2(CO)CC[C@]3(C)C(=CC[C@@H]4[C@@]5(C)CC[C@H](O)C(C)(C)[C@@H]5CC[C@]43C)[C@H]12 [Uvaol]					++		0.31 (≈ 0.0007 µM)	>100.0	28	>250			>250		>20.0	++	Plaque Reduction Assay Average pfu/10^5 Cells HSV-1 Strain F (HSV-1 (strain F)): 0 pfu/10^5 Cells; CC50 [4]: 125 ng/mL (≈ 0.282 µM); CC50 (Daudi cells): 44.3 ng/mL (≈ 0.1 µM); Cell Cytotoxicity [5]: −
Betulin succinate						>50.0	>50.0	3.9			96.9	68.8			>20.0		EC50 (Mouse Cytomegalovirus): >0.004 µg/mL; CC50 (MEF cells): 14.0 ng/mL
